Measurements taken from ChEMBL document CHEMBL1201862, “PubChem BioAssay data set” (2004).
Calls of active or inactive are those of the source.

Legend:
[1] = target: T1, Fructose-bisphosphate aldolase (Mycobacterium tuberculosis, UniProt P9WQA3); assay: Fluorescence-based biochemical high throughput dose response assay for inhibitors of the fructose-bisphosphate aldolase (FBA) of M. tuberculosis.; type: functional
T1 sequence (P9WQA3 whole entry): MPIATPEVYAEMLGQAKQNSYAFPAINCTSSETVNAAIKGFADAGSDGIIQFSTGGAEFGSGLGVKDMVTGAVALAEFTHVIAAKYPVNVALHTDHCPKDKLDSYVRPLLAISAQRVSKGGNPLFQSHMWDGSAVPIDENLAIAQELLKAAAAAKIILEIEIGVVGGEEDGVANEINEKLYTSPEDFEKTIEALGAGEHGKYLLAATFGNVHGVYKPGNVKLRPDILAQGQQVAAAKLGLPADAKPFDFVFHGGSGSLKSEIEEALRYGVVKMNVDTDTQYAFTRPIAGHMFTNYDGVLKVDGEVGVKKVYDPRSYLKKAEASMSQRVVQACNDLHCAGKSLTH

[2] = target: T2, DNA repair protein RAD52 homolog (Homo sapiens, UniProt P43351); type: functional, biochemical
T2 sequence (P43351 whole entry): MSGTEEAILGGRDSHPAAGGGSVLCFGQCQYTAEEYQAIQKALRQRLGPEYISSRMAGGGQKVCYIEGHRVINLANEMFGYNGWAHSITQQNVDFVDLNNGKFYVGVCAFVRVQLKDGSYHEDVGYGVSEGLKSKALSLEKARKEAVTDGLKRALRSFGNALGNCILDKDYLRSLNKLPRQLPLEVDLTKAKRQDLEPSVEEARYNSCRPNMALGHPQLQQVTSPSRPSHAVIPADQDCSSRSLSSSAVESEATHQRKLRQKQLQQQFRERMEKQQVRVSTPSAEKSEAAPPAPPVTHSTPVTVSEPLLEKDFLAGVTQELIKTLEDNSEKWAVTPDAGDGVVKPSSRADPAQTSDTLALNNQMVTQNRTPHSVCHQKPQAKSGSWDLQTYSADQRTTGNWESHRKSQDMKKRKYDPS

[3] = target: T3, DNA repair and recombination protein RAD54-like (Homo sapiens, UniProt Q92698); assay: inhibitors of human RAD54 branch migration, confirmation, biochemical, fluorescence, cherry-picked samples, dose series (AID 651657); type: functional
T3 sequence (Q92698 whole entry): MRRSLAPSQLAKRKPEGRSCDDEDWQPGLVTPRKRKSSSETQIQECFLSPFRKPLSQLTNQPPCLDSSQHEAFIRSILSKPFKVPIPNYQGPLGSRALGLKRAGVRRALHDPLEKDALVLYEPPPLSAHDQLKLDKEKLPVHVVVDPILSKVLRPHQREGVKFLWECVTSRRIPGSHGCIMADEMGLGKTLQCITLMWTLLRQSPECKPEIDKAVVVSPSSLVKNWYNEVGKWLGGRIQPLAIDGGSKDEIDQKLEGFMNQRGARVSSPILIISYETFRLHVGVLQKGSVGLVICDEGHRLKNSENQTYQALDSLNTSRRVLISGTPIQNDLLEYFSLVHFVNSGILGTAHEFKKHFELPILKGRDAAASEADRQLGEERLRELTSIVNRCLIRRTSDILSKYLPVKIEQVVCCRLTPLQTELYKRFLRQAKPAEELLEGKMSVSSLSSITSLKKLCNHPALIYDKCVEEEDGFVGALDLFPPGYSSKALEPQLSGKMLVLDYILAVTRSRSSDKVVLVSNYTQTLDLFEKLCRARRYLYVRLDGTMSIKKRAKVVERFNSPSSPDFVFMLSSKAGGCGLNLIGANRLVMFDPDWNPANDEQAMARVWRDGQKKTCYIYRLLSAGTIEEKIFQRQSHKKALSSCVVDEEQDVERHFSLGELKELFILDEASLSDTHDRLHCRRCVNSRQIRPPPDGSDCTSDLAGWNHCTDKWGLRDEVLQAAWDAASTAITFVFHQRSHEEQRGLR

[4] = cytotoxicity toward DRD oncogenic fibroblasts, dose response, cell-based, non-viral oncogenic, luminescence (AID 1934); type: functional; settings: Homo sapiens
[5] = Luminescence Cell-Based Dose Confirmation HTS to Identify Inhibitors of Platelet Dense Granule Release. [Related pubchem assays: 1663 (Primary HTS), 1678 (Summary of Project)]; type: functional
BJ [6] = assay: cytotoxicity toward BJ-TERT fibroblasts, dose response, cell-based, RAS-independent, luminescence (AID 1933); type: functional; settings: Homo sapiens
Streptokinase A = target: T4, Streptokinase A (Streptococcus pyogenes serotype M1, UniProt P10520); assay: S. pyogenes streptokinase expression inhibitors, potency, dose response, plasminogen activation absorbance, OD405 (AID 1914); type: functional, Streptococcus pyogenes M1 GAS;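 note: secreted streptokinase activity via plasminogen activation per viability signal from cell pellet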
T4 sequence (P10520 whole entry): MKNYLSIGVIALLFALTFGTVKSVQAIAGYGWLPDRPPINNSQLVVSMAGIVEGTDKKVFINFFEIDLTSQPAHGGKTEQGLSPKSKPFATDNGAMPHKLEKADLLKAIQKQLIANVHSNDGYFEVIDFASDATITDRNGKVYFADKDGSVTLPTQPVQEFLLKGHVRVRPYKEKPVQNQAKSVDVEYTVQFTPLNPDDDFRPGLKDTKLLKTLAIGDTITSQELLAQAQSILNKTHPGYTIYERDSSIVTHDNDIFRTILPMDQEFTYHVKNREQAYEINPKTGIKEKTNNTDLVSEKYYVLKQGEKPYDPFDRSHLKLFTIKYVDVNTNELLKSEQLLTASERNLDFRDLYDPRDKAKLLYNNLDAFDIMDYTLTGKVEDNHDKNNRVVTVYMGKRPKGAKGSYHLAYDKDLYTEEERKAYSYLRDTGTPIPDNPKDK

BJ [7] = assay: cytotoxicity toward Ras-transformed BJeLR fibroblasts, dose response, cell-based, alamar blue fluorescence, cherrypicked samples (AID 2631); type: functional; settings: Homo sapiens;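 note: confirmatory dose-response assay in RAS-dependent BJ fibroblasts engineered with TERT, LT and ST, with cytotoxicity read by fluorescence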
[8] = control 3'UTR Renilla luciferase suppression, dose response, counter-screen for Shn3 inhibitor project, cell-based, Clone20-Shn3RL, cherry-picked (AID 624133); type: functional
BJ [9] = assay: cytotoxicity toward BJ-TERT-LT-ST fibroblasts, dose response, cell-based, RAS-independent, luminescence (AID 1935); type: functional; settings: Homo sapiens;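 note: BJ fibroblasts immortalized with TERT plus LT and ST oncogenes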
Genome polyprotein = Genome polyprotein (dengue virus type 2, UniProt P29990); assay: Dengue-2 NS5 methyltransferase inhibitors, primary screen, biochemical, confirmation dose response (AID 588689); type: functional
Genome polyprotein, sequence (P29990 2492-3391 limits assumed): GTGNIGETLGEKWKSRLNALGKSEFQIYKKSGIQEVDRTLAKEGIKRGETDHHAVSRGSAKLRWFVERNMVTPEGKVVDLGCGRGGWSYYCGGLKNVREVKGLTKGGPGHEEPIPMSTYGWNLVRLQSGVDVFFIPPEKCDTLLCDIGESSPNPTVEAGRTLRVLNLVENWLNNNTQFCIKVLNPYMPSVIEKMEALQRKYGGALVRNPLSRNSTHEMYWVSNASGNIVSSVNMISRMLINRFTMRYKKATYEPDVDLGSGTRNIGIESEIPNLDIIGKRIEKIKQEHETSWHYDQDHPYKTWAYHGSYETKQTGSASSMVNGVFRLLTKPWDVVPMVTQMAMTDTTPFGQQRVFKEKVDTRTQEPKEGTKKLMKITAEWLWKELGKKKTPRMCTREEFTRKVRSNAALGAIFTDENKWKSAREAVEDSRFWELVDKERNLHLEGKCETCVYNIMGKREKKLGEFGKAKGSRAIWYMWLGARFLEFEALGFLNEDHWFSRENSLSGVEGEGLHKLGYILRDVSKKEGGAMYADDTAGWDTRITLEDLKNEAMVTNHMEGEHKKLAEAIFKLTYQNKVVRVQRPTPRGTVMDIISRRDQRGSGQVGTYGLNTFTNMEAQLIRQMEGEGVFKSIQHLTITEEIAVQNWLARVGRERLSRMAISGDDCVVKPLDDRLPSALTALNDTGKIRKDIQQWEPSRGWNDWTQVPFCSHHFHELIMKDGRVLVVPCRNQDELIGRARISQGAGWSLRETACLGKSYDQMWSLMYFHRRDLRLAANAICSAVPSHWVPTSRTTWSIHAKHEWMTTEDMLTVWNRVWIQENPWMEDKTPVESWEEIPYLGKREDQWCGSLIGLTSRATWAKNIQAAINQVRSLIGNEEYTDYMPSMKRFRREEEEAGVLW

[10] = target: Luciferin 4-monooxygenase (Photinus pyralis, UniProt P08659); assay: firefly luciferase enzyme inhibitors, dose response, biochemical, luminescence (AID 1891)
Luciferin 4-monooxygenase, sequence (P08659 whole entry): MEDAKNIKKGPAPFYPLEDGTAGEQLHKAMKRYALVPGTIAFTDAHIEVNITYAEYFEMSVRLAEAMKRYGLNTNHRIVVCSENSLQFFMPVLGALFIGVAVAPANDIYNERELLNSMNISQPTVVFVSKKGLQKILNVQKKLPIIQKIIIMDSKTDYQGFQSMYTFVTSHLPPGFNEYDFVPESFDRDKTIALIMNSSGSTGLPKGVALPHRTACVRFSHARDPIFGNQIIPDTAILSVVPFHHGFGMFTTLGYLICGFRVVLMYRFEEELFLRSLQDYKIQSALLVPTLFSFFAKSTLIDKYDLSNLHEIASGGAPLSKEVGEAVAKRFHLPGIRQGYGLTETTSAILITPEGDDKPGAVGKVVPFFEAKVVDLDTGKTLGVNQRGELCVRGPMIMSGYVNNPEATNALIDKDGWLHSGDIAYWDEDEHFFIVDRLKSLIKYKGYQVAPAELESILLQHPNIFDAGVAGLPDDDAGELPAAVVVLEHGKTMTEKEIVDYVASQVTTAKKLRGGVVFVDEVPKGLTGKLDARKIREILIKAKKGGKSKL

[11] = HepG2 cell cytotoxicity, dose response, cytotoxicity control for Shn3 inhibitor project, CellTiter-Glo, cherry-picked (AID 624134); type: functional, cell-based
Vero = Vero cell cytotoxicity, cytotoxicity control for flavivirus capping enzyme inhibitors (AID 588742); type: functional; settings: Chlorocebus sabaeus
HEK293 = assay: inhibitors of LMP1-driven NF-kB reporter, dose response, cell-based, HEK293, luciferase, cherry-pick (AID 588343); type: functional; settings: Homo sapiens
[12] = Shn3 3'UTR reporter inhibitors, dose response, cell-based, Clone20 osteoblasts, firefly luciferase, cherry-picked (AID 624132); type: functional;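 note: firefly luciferase luminescence from reporter carrying the Shn3 3'UTR in osteoblasts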
Fatty acid synthase [13] = target: T5, Fatty acid synthase (Homo sapiens, UniProt P49327); assay: FAS thioesterase domain inhibitors, dose response, biochemical, kinetic fluorescence intensity (AID 624326); type: functional;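 note: rate of fluorescence rise from hydrolysis of a fluorogenic O-methyl fluorescein ester substrate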
T5 sequence (P49327 whole entry, the tested form may be a part): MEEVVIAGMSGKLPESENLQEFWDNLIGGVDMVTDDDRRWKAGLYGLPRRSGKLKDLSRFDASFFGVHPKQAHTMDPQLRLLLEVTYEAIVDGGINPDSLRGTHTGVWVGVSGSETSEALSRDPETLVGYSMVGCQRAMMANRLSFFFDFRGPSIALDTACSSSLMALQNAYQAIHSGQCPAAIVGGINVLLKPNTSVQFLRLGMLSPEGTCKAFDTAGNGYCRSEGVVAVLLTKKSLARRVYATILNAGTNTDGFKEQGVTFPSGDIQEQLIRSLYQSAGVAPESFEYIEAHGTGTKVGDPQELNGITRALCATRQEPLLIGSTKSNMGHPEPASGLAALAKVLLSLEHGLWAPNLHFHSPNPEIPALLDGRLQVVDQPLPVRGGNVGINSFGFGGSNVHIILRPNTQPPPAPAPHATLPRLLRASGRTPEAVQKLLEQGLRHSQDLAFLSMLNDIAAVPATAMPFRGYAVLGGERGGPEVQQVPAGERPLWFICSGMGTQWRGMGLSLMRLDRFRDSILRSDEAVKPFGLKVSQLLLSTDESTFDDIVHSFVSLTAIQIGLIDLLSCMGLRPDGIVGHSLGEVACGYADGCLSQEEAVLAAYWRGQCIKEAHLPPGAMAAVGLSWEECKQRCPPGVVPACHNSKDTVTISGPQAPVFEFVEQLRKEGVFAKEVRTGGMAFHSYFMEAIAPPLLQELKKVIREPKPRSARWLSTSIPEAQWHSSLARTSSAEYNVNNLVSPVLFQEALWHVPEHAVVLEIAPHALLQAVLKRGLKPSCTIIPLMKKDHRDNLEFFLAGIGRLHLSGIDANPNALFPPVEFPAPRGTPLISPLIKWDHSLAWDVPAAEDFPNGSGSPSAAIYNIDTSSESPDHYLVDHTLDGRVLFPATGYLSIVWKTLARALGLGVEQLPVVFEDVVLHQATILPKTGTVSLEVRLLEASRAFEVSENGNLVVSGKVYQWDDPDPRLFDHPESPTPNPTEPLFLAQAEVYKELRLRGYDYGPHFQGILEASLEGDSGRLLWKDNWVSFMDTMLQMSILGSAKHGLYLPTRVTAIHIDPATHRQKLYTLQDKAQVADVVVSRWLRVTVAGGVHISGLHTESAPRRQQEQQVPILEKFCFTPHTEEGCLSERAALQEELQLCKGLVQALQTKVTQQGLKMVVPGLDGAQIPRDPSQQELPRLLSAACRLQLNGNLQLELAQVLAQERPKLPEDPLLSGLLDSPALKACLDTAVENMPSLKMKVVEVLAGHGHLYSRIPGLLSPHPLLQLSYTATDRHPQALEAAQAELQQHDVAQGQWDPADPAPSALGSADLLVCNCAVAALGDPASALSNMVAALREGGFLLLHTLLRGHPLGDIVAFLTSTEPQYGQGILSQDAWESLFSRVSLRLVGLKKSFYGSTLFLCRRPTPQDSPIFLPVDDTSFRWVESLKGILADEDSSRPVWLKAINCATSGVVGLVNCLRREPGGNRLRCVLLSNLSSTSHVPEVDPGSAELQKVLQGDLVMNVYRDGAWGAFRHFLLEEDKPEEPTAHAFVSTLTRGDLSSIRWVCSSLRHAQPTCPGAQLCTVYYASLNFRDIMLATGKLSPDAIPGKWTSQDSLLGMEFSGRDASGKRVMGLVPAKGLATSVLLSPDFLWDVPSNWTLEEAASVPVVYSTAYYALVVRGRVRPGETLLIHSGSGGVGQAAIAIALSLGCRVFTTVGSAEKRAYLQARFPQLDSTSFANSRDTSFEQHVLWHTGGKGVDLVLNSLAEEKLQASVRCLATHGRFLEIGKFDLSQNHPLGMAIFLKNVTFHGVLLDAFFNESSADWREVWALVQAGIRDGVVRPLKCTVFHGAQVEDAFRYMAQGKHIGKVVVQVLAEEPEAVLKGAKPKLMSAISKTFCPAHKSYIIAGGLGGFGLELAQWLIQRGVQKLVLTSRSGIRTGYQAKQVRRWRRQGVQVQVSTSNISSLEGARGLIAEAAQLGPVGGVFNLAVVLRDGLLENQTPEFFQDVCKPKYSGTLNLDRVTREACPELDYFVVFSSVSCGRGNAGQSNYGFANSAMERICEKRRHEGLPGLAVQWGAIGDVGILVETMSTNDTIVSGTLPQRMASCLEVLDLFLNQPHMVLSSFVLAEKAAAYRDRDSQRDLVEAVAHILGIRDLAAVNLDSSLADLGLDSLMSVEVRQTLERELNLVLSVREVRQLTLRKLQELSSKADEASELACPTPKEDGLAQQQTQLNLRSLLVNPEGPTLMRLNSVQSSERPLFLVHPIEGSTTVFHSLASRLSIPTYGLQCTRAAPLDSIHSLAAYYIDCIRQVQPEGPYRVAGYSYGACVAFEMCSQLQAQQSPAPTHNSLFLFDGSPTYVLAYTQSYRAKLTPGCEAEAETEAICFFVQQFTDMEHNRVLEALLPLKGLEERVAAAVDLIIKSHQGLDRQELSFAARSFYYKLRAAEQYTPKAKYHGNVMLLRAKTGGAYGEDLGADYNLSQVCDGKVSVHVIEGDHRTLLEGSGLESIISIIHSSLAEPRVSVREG

Paired box protein Pax-8 = Paired box protein Pax-8 (Homo sapiens, UniProt Q06710); assay: inhibitors of PAX8-driven TPO luciferase reporter, dose response, RMG-I cells, cherry-pick (AID 687027); type: functional, cell-based;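 note: luciferase reporter driven by Pax8 target thyroperoxidase promoter measured by SteadyGlo luminescence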
Paired box protein Pax-8, sequence (Q06710 whole entry): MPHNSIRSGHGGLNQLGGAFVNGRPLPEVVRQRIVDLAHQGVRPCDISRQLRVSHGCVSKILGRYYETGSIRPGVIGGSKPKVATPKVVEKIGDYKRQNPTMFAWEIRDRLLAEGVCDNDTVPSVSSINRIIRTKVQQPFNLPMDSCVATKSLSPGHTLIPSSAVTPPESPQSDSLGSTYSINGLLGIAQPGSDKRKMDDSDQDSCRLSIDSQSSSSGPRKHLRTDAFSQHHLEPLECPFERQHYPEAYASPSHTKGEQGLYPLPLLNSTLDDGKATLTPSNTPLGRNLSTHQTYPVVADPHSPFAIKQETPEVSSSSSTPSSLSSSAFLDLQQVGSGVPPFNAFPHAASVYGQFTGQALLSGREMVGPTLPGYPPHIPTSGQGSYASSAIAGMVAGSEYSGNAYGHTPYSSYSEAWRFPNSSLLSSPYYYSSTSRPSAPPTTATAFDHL

Streptococcus = assay: Group A Streptococcus viability loss, dose response, counter-screen for streptokinase expression inhibitor project, luminescence, BacTiterGlo (AID 1915); type: functional, organism-based;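 note: potency for reduction of bacterial viability or growth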
[14] = target: T6, High affinity choline transporter 1 (Homo sapiens, UniProt Q9GZV3); assay: CHT inhibitors, dose response, cell-based, 5-point CRC, membrane potential dye (AID 504840); type: functional
T6 sequence (Q9GZV3 whole entry): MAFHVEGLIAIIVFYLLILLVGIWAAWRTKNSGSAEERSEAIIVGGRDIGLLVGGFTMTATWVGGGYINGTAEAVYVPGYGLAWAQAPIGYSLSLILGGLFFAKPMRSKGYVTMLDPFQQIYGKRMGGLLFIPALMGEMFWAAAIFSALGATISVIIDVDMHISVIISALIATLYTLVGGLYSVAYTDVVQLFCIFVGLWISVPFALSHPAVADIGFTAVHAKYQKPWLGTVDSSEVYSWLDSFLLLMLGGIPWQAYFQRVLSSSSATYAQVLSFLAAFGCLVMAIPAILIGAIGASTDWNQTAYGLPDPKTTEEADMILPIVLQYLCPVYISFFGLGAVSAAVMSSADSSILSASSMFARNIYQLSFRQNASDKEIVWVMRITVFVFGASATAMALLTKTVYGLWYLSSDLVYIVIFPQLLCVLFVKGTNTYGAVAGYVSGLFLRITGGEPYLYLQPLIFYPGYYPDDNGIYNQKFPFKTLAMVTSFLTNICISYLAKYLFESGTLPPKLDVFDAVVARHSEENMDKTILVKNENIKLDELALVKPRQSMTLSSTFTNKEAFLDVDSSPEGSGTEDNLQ

Fatty acid synthase [15] = target: T5, Fatty acid synthase; assay: FAS thioesterase domain inhibitors, dose response, biochemical, endpoint fluorescence intensity, uHTS hits (AID 624327); type: functional;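 note: fluorescence from hydrolysis of an O-methyl fluorescein acyl ester substrate by the enzyme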
[16] = non-specific cell cytotoxicity, dose response, cytotoxicity control for PAX8 inhibitor project, plate reader, dry powder samples (AID 743021); type: functional, cell-based
Large T antigen = Large T antigen (Simian virus 40, UniProt P03070); type: functional, Betapolyomavirus macacae;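 note: Confirmatory-stage PubChem screen for compounds that inhibit SV40 T antigen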
Large T antigen, sequence (P03070 whole entry): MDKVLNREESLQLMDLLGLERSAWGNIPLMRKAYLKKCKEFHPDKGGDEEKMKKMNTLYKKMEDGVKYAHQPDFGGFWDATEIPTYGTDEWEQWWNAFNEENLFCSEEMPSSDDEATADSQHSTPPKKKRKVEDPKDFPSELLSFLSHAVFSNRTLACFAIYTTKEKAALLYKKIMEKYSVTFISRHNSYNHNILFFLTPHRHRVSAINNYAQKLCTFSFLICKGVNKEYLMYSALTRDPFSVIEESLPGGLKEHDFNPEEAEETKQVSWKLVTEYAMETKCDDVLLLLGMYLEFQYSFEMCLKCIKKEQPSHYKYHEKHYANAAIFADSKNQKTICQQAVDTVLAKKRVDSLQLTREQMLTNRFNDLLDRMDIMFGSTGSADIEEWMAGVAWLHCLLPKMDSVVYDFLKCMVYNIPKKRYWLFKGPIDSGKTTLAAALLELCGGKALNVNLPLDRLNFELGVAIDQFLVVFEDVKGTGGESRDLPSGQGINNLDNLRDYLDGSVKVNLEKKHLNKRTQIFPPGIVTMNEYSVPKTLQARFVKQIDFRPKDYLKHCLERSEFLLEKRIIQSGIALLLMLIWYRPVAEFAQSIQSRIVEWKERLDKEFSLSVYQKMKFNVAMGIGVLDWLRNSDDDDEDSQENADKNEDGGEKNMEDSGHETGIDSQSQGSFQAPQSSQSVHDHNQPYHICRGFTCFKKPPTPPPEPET

BJ [17] = assay: cells; type: functional, cell-based; settings: Homo sapiens
[18] = tested on: Streptococcus sp. 'group A'; assay: growth inhibition of control SK(-) GAS strain, dose response, counter-screen for streptokinase expression inhibitor project, luminescence, kanamycin, BacTiterGlo, confirmation (AID 1900); type: functional, organism-based
[19] = HepG2 cell cytotoxicity, dose response, cytotoxicity control, plate reader, cherry-pick, antagonist series (AID 743416); type: functional, cell-based
[20] = HEK293 cell cytotoxicity, dose response, cytotoxicity control, plate reader, cherry-picked samples (AID 743446); type: functional, cell-based
[21] = MC4R antagonists, dose response, counter-screen for LGR2 antagonist project, cell-based, plate reader, cherry pick (AID 743444); type: functional;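 note: transfected HEK 293 cells stimulated with alpha-MSH peptide; potency of inhibitors of the alpha-MSH evoked signal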
[22] = A549 cell cytotoxicity, dose response, cytotoxicity control, plate reader, cherry-pick, antagonist series (AID 743412); type: functional, cell-based
[23] = LGR2 antagonists, dose response, cell-based, HEK293, CRE-luciferase reporter, cherry pick, set 2 (AID 743343); type: functional;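 note: transfected cells were stimulated with diluted bursicon conditioned medium after compound addition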
cells [24] = type: functional, cell-based
cells [25] = type: functional, cell-based; remark: listed apart in the source

Cc1cc2c(SCc3ccccc3Cl)nc(N)nc2nc1C
IC50 [1]: 0.833 µM (active)

COc1ccc(CCNC(=O)c2cc3c(=O)n4ccccc4nc3n(CCCN3CCOCC3)c2=N)cc1OC
AC50 [2]: 11.5 µM (active)
AC50 [3]: 31 µM (active)

COC(=O)CN(c1ccc2c(c1)OCCO2)S(=O)(=O)c1ccccc1
IC50 [1]: > 9.99 µM (inactive)

O=[N+]([O-])c1c(Nc2cccc(O)c2)cc(Cl)c2nonc12
EC50 [4]: 5.13 µM (active)
EC50 [5]: 4.14 µM (active)
EC50 (BJ [6]): 2.6 µM (active)
EC50 (Streptokinase A): 5.58 µM (active)
EC50 (BJ [7]): 0.585 µM (active)
AC50 [8]: 5.66 µM (active)
EC50 (BJ [9]): 4.25 µM (inconclusive)
IC50 (Genome polyprotein): 26.2 µM (active)
EC50 [10]: > 112 µM (not active)
AC50 [11]: 12.5 µM (active)
CC50 (Vero): 33.7 µM (active)
AC50 (HEK293): 3.64 µM (active)
AC50 [12]: 0.683 µM (active)
IC50 (Fatty acid synthase [13]): 3.24 µM (active)
AC50 (Paired box protein Pax-8): 7.24 µM (active)
EC50 (Streptococcus): 10.5 µM (active)
IC50 [14]: 10.5 µM (active)
IC50 (Fatty acid synthase [15]): 5.29 µM (active)
AC50 [16]: 22.6 µM (active)
IC50 (Large T antigen): 47.8 µM (active)
EC50 (BJ [17]): 5.62 µM (inconclusive)
EC50 [18]: 7.24 µM (active)

COc1ccc(-c2cc(-c3ccccc3)c(C#N)c(SCC(=O)O)n2)cc1
IC50 [1]: 1.35 µM (active)

COc1cc(-c2cnc3c(NC=O)cc(-c4cccc(C(=O)NCCN(C)C)c4)cn23)cc(OC)c1OC
AC50 [2]: 3.07 µM (active)
AC50 [3]: 8.57 µM (active)

N#C[C@@H]1[C@H](c2ccc(C#Cc3ccccc3F)cc2)[C@H](CO)N1C(=O)C1CCCCC1
AC50 [19]: 2.67 µM (active)
AC50 [20]: 14.3 µM (active)
AC50 [21]: 27.5 µM (active)
AC50 [22]: 17.6 µM (active)
AC50 [23]: 20 µM (active)

O=C(Cn1cnc2ccccc21)N/N=C/c1cccs1
IC50 (cells [24]): > 29.9 µM (inactive)
EC50 (cells [25]): > 29.9 µM (inactive)

O=C(CNC(=O)c1cccc(F)c1)N/N=C/C=C/c1ccccc1
IC50 (cells [24]): > 29.9 µM (inactive)
EC50 (cells [25]): > 29.9 µM (inactive)
